system: OCI-LY3 cells; assay: Resazurin cell viability (proliferation) assay in OCI-LY3 DLBCL cells; assay type: cell-based; settings: Homo sapiens, OCI-LY3 cells (BTK independent), 72 h, 50% growth inhibition vs vehicle, read-out: OCI-LY3 Prol GI50
Outline: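 Cells were seeded at 1×10^4 per well and dosed 3 h later: 8-point 1:4 dilutions from 10 μM (OCI-LY3), in triplicate, 72 h at 37 °C. Resazurin (13 μg/ml final) was added for the last 2 h and fluorescence read at 530/600 nm. GI50 is relative to DMSO vehicle, typically from ≥2 independent experiments.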

Structure (SMILES)	GI50
CCOc1ccc(C(=O)N2CCC3(CCN(Cc4ccc(-c5cc6c(-c7cc(F)cc(NC(=O)c8ccc(C(C)(C)O)cc8F)c7C)ncnc6[nH]5)cc4)CC3)CC2)cc1N1CCC(=O)NC1=O [Compound 4, N-(3-(6-(4-((9-(3-(2,4-Dioxotetrahydropyrimidin-1(2H)-yl)-4-ethoxybenzoyl)-3,9-diazaspiro[5.5]undecan-3-yl)methyl)phenyl)-7H-pyrrolo[2,3-d]pyrimidin-4-yl)-5-fluoro-2-methylphenyl)-2-fluoro-4-(2-hydroxypropan-2-yl)benzamide]	4.69 µM
Cc1ccc(C(=O)N2CCC3(CCN(CCc4ccc(-c5cc6c(-c7cc(F)cc(NC(=O)c8ccc(C(C)(C)O)cc8F)c7C)ncnc6[nH]5)cc4)CC3)CC2)cc1N1CCC(=O)NC1=O [Compound 5, N-(3-(6-(4-(2-(9-(3-(2,4-Dioxotetrahydropyrimidin-1(2H)-yl)-4-methylbenzoyl)-3,9-diazaspiro[5.5]undecan-3-yl)ethyl)phenyl)-7H-pyrrolo[2,3-d]pyrimidin-4-yl)-5-fluoro-2-methylphenyl)-2-fluoro-4-(2-hydroxypropan-2-yl)benzamide]	6.55 µM
Cc1c(NC(=O)c2ccc(C(C)(C)O)cc2F)cc(F)cc1-c1ncnc2[nH]c(-c3ccc(COC4CCN(CCC5CCN(C(=O)c6ccc(F)c(N7CCC(=O)NC7=O)c6)CC5)CC4)cc3)cc12 [Compound 6, N-(3-(6-(4-(((1-(2(1-(3-(2,4-dioxotetrahydropyrimidin-1(2H)-yl)-4-fluorobenzoyl)piperidin-4-yl)ethyl)piperidin-4-yl)oxyl)methyl)phenyl)-7H-pyrrolo[2,3-d]pyrimidin-4-yl)-5-fluoro-2-methylphenyl)-2-fluoro-4-(2-hydroxypropan-2-yl)benzamide]	3.43 µM
COc1ccc(C(=O)N2CCC(OC3CCN(Cc4ccc(-c5cc6c(-c7cc(F)cc(NC(=O)c8ccc(C(C)(C)O)cc8F)c7C)ncnc6[nH]5)cc4)CC3)CC2)cc1N1CCC(=O)NC1=O [Compound 8, N-(3-(6-(4-((4-((1-(3-(2,4-dioxotetrahydropyrimidin-1(2H)-yl)-4-methoxybenzoyl)piperidin-4-yl)oxyl)piperidin-1-yl)methyl)phenyl)-7H-pyrrolo[2,3-d]pyrimidin-4-yl)-5-fluoro-2-methylphenyl)-2-fluoro-4-(2-hydroxypropan-2-yl)benzamide]	4.85 µM
COc1ccc(C(=O)N2CCC3(CCN(Cc4ccc(-c5cc6c(-c7cc(F)cc(NC(=O)c8ccc(C(C)(C)O)cc8F)c7C)ncnc6[nH]5)cc4)CC3)CC2)cc1N1CCC(=O)NC1=O [Compound 9, N-(3-(6-(4-((9-(3-(2,4-Dioxotetrahydropyrimidin-1(2H)-yl)-4-methoxybenzoyl)-3,9-diazaspiro[5.5]undecan-3-yl)methyl)phenyl)-7H-pyrrolo[2.3-d]pyrimidin-4-yl)-5-fluoro-2-methylphenyl)-2-fluoro-4-(2-hydroxypropan-2-yl)benzamide]	3.87 µM
Cc1c(NC(=O)c2ccc(C(C)(C)O)cc2F)cc(F)cc1-c1ncnc2[nH]c(-c3ccc(CCN4CCC5(CC4)CCN(C(=O)c4cccc(N6CCC(=O)NC6=O)c4)CC5)cc3)cc12 [Compound 12, N-(3-(6-(4-(2-(9-(3-(2,4-Dioxotetrahydropyrimidin-1(2H)-yl)benzoyl)-3,9-diazaspiro[5,5]undecan-3-yl)ethyl)phenyl)-7H-pyrrolo[2,3-d]pyrimidin-4-yl)-5-fluoro-2-methylphenyl)-2-fluoro-4-(2-hydroxypropan-2-yl)benzamide]	3.83 µM
Cc1c(NC(=O)c2ccc(C(C)(C)O)cc2F)cc(F)cc1-c1ncnc2[nH]c(-c3ccc(CN4CCC5(CC4)CCN(C(=O)c4ccc(F)c(N6CCC(=O)NC6=O)c4)CC5)cc3)cc12 [Compound 14, N-(3-(6-(4-((9-(3-(2,4-Dioxotetrahydropyrimidin-1(2H)-yl)-4-fluorobenzoyl)-3,9-diazaspiro[5.5]undecan-3-yl)methyl)phenyl)-7H-pyrrolo[2.3-d]pyrimidin-4-yl)-5-fluoro-2-methylphenyl)-2-fluoro-4-(2-hydroxypropan-2-yl)benzamide]	5.98 µM
COc1ccc(C(=O)N2CCC(CN3CCC(Oc4ccc(-c5cc6c(-c7cc(F)cc(NC(=O)c8ccc(C(C)(C)O)cc8F)c7C)ncnc6[nH]5)cc4)CC3)CC2)cc1N1CCC(=O)NC1=O [Compound 19, N-(3-(6-(4-((1-((1-(3-(2,4-Dioxotetrahydropyrimidin-1(2H)-yl)-4-methoxybenzoyl)piperidin-4-yl)methyl)piperidin-4-yl)oxyl)phenyl)-7H-pyrrolo[2,3-d]pyrimidin-4-yl)-5-fluoro-2-methylphenyl)-2-fluoro-4-(2-hydroxypropan-2-yl)benzamide]	4.46 µM
COc1ccc(C(=O)N2CCC3(CC2)CCN(C(C)(C)Cc2ccc(-c4cc5c(-c6cc(F)cc(NC(=O)c7ccc(C(C)(C)O)cc7F)c6C)ncnc5[nH]4)cc2)CC3)cc1N1CCC(=O)NC1=O [Compound 20, N-(3-(6-(4-(2-(9-(3-(2,4-Dioxotetrahydropyrimidin-1(2H)-yl)-4-methoxybenzoyl)-3,9-diazaspiro[5.5]undecan-3-yl)-2-methylpropyl)phenyl)-7H-pyrrolo[2,3-d]pyrimidin-4-yl)-5-fluoro-2-methylphenyl)-2-fluoro-4-(2-hydroxypropan-2-yl)benzamide]	7.9 µM
COc1ccc(C(=O)N2CCN(C(=O)N3CCN(Cc4ccc(-c5cc6c(-c7cc(F)cc(NC(=O)c8ccc(C(C)(C)O)cc8F)c7C)ncnc6[nH]5)cc4)CC3)CC2)cc1N1CCC(=O)NC1=O [Compound 22, N-(3-(6-(4-((4-(4-(3-(2,4-Dioxotetrahydropyrimidin-1(2H)-yl)-4-methoxybenzoyl)piperazine-1-carbonyl)piperazin-1-yl)methyl)phenyl)-7H-pyrrolo[2,3-d]pyrimidin-4-yl)-5-fluoro-2-methylphenyl)-2-fluoro-4-(2-hydroxypropan-2-yl)benzamide]	4.11 µM
Cc1ccc(C(=O)N2CCC3(CCN(Cc4ccc(-c5cc6c(-c7cc(F)cc(NC(=O)c8ccc(C(C)(C)O)cc8F)c7C)ncnc6[nH]5)cc4)CC3)CC2)cc1N1CCC(=O)NC1=O [Compound 27, N-(3-(6-(4-((9-(3-(2,4-Dioxotetrahydropyrimidin-1(2H)-yl)-4-methylbenzoyl)-3,9-diazaspiro[5.5]undecan-3-yl)methyl)phenyl)-7H-pyrrolo[2,3-d]pyrimidin-4-yl)-5-fluoro-2-methylphenyl)-2-fluoro-4-(2-hydroxypropan-2-yl)benzamide]	4.08 µM
Cc1cc(F)c(C(=O)NCCCCCNCc2ccc(-c3cc4c(-c5cc(F)cc(NC(=O)c6ccc(C(C)(C)O)cc6F)c5C)ncnc4[nH]3)cc2)cc1N1CCC(=O)NC1=O [Compound 29, 5-(2,4-Dioxotetrahydropyrimidin-1(2H)-yl)-2-fluoro-N—(S-((4-(4-(5-fluoro-3-(2-fluoro-4-(2-hydroxypropan-2-yl)benzamido)-2-methylphenyl)-7H-pyrrolo[2,3-d]pyrimidin-6-yl)benzyl)amino)pentyl)-4-methylbenzamide]	8.62 µM
Cc1ccc(C(=O)N(C)CCCCCNCc2ccc(-c3cc4c(-c5cc(F)cc(NC(=O)c6ccc(C(C)(C)O)cc6F)c5C)ncnc4[nH]3)cc2)cc1N1CCC(=O)NC1=O [Compound 30, 3-(2,4-Dioxotetrahydropyrimidin-1(2H)-yl)-N-(5-((4-(4-(5-fluoro-3-(2-fluoro-4-(2-hydroxypropan-2-yl)benzamido)-2-methylphenyl)-7H-pyrrolo[2,3-d]pyrimidin-6-yl)benzyl)amino)pentyl)-N,4-dimethylbenzamide]	> 10 µM
COc1ccc(C(=O)N2CCC3(CCN(CCc4ccc(-c5cc6c(-c7cc(F)cc(NC(=O)c8ccc(C(C)(C)O)cc8F)c7C)ncnc6[nH]5)cc4)CC3)CC2)cc1N1CCC(=O)NC1=O [Compound 31, N-(3-(6-(4-(2-(9-(3-(2,4-Dioxotetrahydropyrimidin-1(2H)-yl)-4-methoxybenzoyl)-3,9-diazaspiro[5.5]undecan-3-yl)ethyl)phenyl)-7H-pyrrolo[2,3-d]pyrimidin-4-yl)-5-fluoro-2-methylphenyl)-2-fluoro-4-(2-hydroxypropan-2-yl)benzamide]	5.64 µM
COc1ccc(C(=O)N2CCC(OC3CCN(CCc4ccc(-c5cc6c(-c7cc(F)cc(NC(=O)c8ccc(C(C)(C)O)cc8F)c7C)ncnc6[nH]5)cc4)CC3)CC2)cc1N1CCC(=O)NC1=O [Compound 34, N-(3-(6-(4-(2-(4-((1-(3-(2,4-Dioxotetrahydropyrimidin-1(2H)-yl)-4-methoxybenzoyl)piperidin-4-yl)oxyl)piperidin-1-yl)ethyl)phenyl)-7H-pyrrolo[2,3-d]pyrimidin-4-yl)-5-fluoro-2-methylphenyl)-2-fluoro-4-(2-hydroxypropan-2-yl)benzamide]	> 10 µM
COc1ccc(C(=O)NCCN2CCOC3(CCN(Cc4ccc(-c5cc6c(-c7cc(F)cc(NC(=O)c8ccc(C(C)(C)O)cc8F)c7C)ncnc6[nH]5)cc4)CC3)C2)cc1N1CCC(=O)NC1=O [Compound 39, N-(3-(6-(4-((4-(2-(3-(2,4-dioxotetrahydropyrimidin-1(2H)-yl)-4-methoxybenzamido)ethyl)-1-oxa-4,9-diazaspiro[5.5]undecan-9-yl)methyl)phenyl)-7H-pyrrolo[2,3-d]pyrimidin-4-yl)-5-fluoro-2-methylphenyl)-2-fluoro-4-(2-hydroxypropan-2-yl)benzamide]	7.16 µM
COc1ccc(C(=O)N2CCN(CCCCNCc3ccc(-c4cc5c(-c6cc(F)cc(NC(=O)c7ccc(C(C)(C)O)cc7F)c6C)ncnc5[nH]4)cc3)CC2)cc1N1CCC(=O)NC1=O [Compound 40, N-(3-(6-(4-(((4-(4-(3-(2,4-dioxotetrahydropyrimidin-1(2H)-yl)-4-methoxybenzoyl)piperazin-1-yl)butyl)amino)methyl)phenyl)-7H-pyrrolo[2,3-d]pyrimidin-4-yl)-5-fluoro-2-methylphenyl)-2-fluoro-4-(2-hydroxypropan-2-yl)benzamide]	> 10 µM
